Patent US6358978B1, “Substituted benzimidazoles” (Aventis Pharma Deutschland GmbH, priority 1999, dated 2002)
Where a name gives a salt, the structure may show the parent alone.

Columns and labels:
[1] = target: T1, IκB kinase (Homo sapiens, UniProt O14920+O15111); experiment: IκB kinase filter test; assay type: biochemical; settings: kinase purified from HeLa cell extracts; 50 μM ATP; substrate peptide 20 μM
T1 construct: The kinase was purified from HeLa cell extracts; endogenous in cells; host or cells: HeLa cell extracts

[2] = test system: protein kinase C (PKC); experiment: PKC kinase test (Upstate Biotechnology kit); assay type: biochemical; settings: substance concentration of 100 μM; ATP 50 μM
Experimental: (§1) cAMP-dependent protein kinase (PKA), protein kinase C (PKC), and casein kinase II (CK II) were determined using the appropriate test kits of Upstate Biotechnology according to the procedure of the manufacturer at an ATP concentration of 50 μM. Differently, no phosphocellulose filter, but MultiScreen plates (Millipore; phosphocellulose MS-PH, cat. MAPHNOB10) with the corresponding aspiration system were used. The plates or membranes (IκB kinase) were then measured in a Wallac Microβeta scintillation counter. 100 μM of the test substance were employed in each case.
(§2) Each substance was tested in a duplicate determination. The mean value of the blank (without enzyme) is subtracted from the mean values (enzyme with and without substances) and the % inhibition is calculated. IC50 calculations were carried out using the software package GraFit 3.0.

[3] = target: T2, cAMP-dependent protein kinase (PKA) (Homo sapiens, UniProt P17612); experiment: PKA kinase test (Upstate Biotechnology kit); assay type: biochemical; settings: substance concentration of 100 μM; ATP 50 μM
T2 construct: purchased Upstate Biotechnology
Experimental: as §1, §2

[4] = target: T3, casein kinase II (CK II) (Homo sapiens, UniProt P68400); experiment: CK II kinase test (Upstate Biotechnology kit); assay type: biochemical; settings: substance concentration of 100 μM; ATP 50 μM
T3 construct: purchased Upstate Biotechnology
Experimental: as §1, §2

T3 sequence (P68400 whole entry): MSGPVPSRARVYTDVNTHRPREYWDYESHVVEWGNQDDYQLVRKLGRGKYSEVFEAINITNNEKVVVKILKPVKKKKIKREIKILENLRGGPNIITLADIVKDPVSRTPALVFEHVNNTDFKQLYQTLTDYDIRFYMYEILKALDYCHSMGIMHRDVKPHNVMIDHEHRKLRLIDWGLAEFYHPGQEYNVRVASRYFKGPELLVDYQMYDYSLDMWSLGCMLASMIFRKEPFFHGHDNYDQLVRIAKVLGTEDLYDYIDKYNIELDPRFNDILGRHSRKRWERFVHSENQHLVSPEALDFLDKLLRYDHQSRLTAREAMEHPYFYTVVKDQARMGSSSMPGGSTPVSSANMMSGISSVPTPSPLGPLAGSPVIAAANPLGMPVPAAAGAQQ
T3 sequence (P67870 whole entry partner): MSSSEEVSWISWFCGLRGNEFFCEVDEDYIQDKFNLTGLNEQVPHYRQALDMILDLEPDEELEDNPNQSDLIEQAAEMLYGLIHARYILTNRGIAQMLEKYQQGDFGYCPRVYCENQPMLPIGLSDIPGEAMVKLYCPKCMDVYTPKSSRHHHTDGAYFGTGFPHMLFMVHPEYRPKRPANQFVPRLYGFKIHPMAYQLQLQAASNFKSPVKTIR
T1 sequence (O14920 whole entry): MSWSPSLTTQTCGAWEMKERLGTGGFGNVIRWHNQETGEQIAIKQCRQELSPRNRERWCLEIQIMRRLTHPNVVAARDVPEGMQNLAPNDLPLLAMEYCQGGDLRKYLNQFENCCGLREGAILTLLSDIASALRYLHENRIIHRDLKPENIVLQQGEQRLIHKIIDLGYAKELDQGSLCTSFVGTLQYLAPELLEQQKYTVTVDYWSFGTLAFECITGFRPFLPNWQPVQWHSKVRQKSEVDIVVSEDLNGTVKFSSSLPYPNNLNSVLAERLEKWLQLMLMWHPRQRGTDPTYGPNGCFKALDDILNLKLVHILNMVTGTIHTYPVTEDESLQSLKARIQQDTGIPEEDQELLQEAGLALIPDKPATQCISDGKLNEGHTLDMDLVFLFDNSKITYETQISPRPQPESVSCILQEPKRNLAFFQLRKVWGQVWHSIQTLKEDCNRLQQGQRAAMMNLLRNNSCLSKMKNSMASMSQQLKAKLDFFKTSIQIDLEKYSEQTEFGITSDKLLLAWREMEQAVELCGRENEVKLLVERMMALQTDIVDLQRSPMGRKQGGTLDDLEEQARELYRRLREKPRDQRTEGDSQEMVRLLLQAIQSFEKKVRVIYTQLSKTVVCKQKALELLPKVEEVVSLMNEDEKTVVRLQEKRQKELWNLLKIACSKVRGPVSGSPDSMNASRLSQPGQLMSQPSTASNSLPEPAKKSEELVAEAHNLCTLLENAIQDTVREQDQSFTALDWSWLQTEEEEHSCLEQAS
T1 sequence (O15111 whole entry): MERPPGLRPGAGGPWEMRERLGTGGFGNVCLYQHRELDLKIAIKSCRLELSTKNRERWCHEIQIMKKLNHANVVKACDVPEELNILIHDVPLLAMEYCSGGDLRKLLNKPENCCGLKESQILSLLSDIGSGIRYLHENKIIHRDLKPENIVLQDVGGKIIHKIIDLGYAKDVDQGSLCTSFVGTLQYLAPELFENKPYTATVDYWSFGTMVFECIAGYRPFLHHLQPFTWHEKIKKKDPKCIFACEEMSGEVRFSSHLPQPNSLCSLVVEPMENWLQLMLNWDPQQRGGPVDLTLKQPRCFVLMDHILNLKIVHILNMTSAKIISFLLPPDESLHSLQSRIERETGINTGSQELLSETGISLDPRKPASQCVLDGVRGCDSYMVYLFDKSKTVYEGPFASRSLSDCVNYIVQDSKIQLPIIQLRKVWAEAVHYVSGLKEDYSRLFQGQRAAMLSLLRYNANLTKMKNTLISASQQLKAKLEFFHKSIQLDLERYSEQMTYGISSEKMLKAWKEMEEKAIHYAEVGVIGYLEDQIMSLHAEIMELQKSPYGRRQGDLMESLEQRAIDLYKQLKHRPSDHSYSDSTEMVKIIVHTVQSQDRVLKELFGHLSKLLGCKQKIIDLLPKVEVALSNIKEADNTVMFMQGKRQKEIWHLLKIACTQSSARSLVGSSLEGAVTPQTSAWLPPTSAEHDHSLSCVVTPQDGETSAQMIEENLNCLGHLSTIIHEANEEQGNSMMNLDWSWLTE
T1 sequence (Q9Y6K9 whole entry partner): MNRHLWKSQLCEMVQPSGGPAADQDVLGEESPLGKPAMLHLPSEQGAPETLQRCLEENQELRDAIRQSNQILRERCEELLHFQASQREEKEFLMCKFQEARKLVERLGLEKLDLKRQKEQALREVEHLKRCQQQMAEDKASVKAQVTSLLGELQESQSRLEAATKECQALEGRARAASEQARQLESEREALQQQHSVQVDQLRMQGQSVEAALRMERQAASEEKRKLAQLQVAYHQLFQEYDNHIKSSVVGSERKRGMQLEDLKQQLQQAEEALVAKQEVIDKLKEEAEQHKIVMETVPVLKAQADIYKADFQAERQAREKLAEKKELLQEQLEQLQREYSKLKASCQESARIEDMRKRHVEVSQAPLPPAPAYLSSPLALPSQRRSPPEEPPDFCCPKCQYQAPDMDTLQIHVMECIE

## CCN(C[C@H](NC(=O)c1ccc2[nH]c(-c3ccncc3)nc2c1)C(=O)O)c1ccccc1 (as salt: trifluoroacetate) [Example 195, 3-Phenylaminoethyl-2-[(2-pyridin-4-yl-1H-benzimidazole-5-carbonyl)-amino]propionic acid trifluoroacetate]
other
  melting point: ~ 258 °C (dec.)

## O=C(N[C@@H](Cc1ccc(F)cc1F)C(=O)O)c1ccc2nc(-c3ccncc3)[nH]c2c1 [Example 5]
[1]
  IC50: 25 µM
[2]
  PKC % inhibition: 16%
[3]
  inhibition at 100 µM: 0%
[4]
  inhibition at 100 µM: 19%

## O=C(N[C@H](Cc1ccc(Cl)cc1)C(=O)O)c1ccc2nc(-c3ccncc3)[nH]c2c1 [Example 6]
[1]
  IC50: 72 µM
[2]
  PKC % inhibition: 46%
[3]
  inhibition at 100 µM: 0%
[4]
  inhibition at 100 µM: 14%

## O=C(N[C@@H](Cc1ccc(F)cc1)C(=O)O)c1ccc2nc(-c3ccncc3)[nH]c2c1 [Example 7]
[1]
  IC50: 22 µM
[2]
  PKC % inhibition: 15%
[3]
  inhibition at 100 µM: 0%
[4]
  inhibition at 100 µM: 10%

## NC(=O)[C@H](Cc1cccc(C(F)(F)F)c1)NC(=O)c1ccc2nc(-c3ccncc3)[nH]c2c1 [Example 8]
[1]
  IC50: 4 µM
[2]
  PKC % inhibition: 9%
[3]
  inhibition at 100 µM: 0%
[4]
  inhibition at 100 µM: 7%

## NC(=O)[C@H](Cc1cccs1)NC(=O)c1ccc2nc(-c3ccncc3)[nH]c2c1 [Example 11]
[1]
  IC50: 7 µM
[2]
  PKC % inhibition: 16%
[3]
  inhibition at 100 µM: 0%
[4]
  inhibition at 100 µM: 0%

## NC(=O)[C@H](Cc1cccnc1)NC(=O)c1ccc2nc(-c3ccncc3)[nH]c2c1 [Example 12]
[1]
  IC50: 42 µM
[2]
  PKC % inhibition: 16%
[3]
  inhibition at 100 µM: 0%
[4]
  inhibition at 100 µM: 0%

## NC(=O)[C@H](Cc1ccc(C(=O)O)cc1)NC(=O)c1ccc2nc(-c3ccncc3)[nH]c2c1 [Example 14]
[1]
  IC50: 7 µM
[2]
  PKC % inhibition: 0%
[3]
  inhibition at 100 µM: 0%
[4]
  inhibition at 100 µM: 0%

## N#Cc1ccc(C[C@H](NC(=O)c2ccc3nc(-c4ccncc4)[nH]c3c2)C(N)=O)cc1 [Example 16]
[1]
  IC50: 9 µM
[2]
  PKC % inhibition: 11%
[3]
  inhibition at 100 µM: 0%
[4]
  inhibition at 100 µM: 4%

## NC(=O)[C@H](Cc1ccc2ccccc2n1)NC(=O)c1ccc2nc(-c3ccncc3)[nH]c2c1 [Example 19]
[1]
  IC50: 1 µM
[2]
  PKC % inhibition: 63%
[3]
  inhibition at 100 µM: 36%
[4]
  inhibition at 100 µM: 70%

## NC(=O)[C@H](Cc1cc(Br)c(O)c(Br)c1)NC(=O)c1ccc2nc(-c3ccncc3)[nH]c2c1 [Example 20]
[1]
  IC50: 34 µM
[2]
  PKC % inhibition: 31%
[3]
  inhibition at 100 µM: 26%
[4]
  inhibition at 100 µM: 60%

## NC(=O)[C@H](Cc1cccs1)NC(=O)c1cccc2nc(-c3ccncc3)[nH]c12 [Example 34]
[1]
  IC50: 16 µM

## NC(=O)[C@H](CC1CC1)NC(=O)c1cccc2nc(-c3ccncc3)[nH]c12 [Example 36]
[1]
  IC50: 36 µM

## CSCC[C@H](NC(=O)c1ccc2[nH]c(-c3ccncc3)nc2c1)C(N)=O [Example 107]
[1]
  IC50: 1 µM
[2]
  PKC % inhibition: 13%
[3]
  inhibition at 100 µM: 0%
[4]
  inhibition at 100 µM: 92%

## CC(C)(C)c1ccccc1SC[C@H](NC(=O)c1ccc2[nH]c(-c3ccncc3)nc2c1)C(=O)O [Example 112]
[1]
  IC50: 25 µM
[2]
  PKC % inhibition: 7%
[3]
  inhibition at 100 µM: 24%
[4]
  inhibition at 100 µM: 17%

## Nc1nnc([C@H](CCc2ccccc2)NC(=O)c2ccc3[nH]c(-c4ccncc4)nc3c2)o1 [Example 179, 2-pyridin4-yl-1H-benzimidazole-5-carboxylic acid [1-(5-amino-[1,3,4]oxadiazol-2-yl)-3-phenylpropyl]amide]
[1]
  IC50: 0.43 µM
other
  melting point: 160 °C (dec.)

## O=C(N[C@@H](CCc1ccccc1)c1nnco1)c1ccc2[nH]c(-c3ccncc3)nc2c1 [Example 180, 2-pyridin-4-yl-1H-benzimidazole-5-carboxylic acid (1-[1,3,4]oxadiazol-2-yl-3-phenylpropyl)amide]
[1]
  IC50: 0.62 µM
other
  melting point: 103 °C (dec.)

## O=C(N[C@@H](CCc1ccccc1)c1nnc(NS(=O)(=O)c2ccccc2)o1)c1ccc2[nH]c(-c3ccncc3)nc2c1 [Example 191]
[1]
  IC50: 0.12 µM
other
  melting point: 220 °C (dec.)

## CNC(=O)Nc1nnc([C@H](CCc2ccccc2)NC(=O)c2ccc3[nH]c(-c4ccncc4)nc3c2)o1 [Example 192, 2-pyridin-4-yl-1H-benzimidazole-5-carboxylic acid {1-[5-(3-methylureido)-[1,3,4]oxadiazol-2-yl]-3-phenylpropyl}amide]
[1]
  IC50: 0.36 µM
